Among the data in patent US20220306640A1, “HYDANTOIN DERIVATIVE” (ONO PHARMACEUTICAL CO., LTD., priority 2019, published 2022) are IC50 values, retold here.

As a reminder, the IC50 is the concentration at which inhibition is half-maximal. A low value points to greater potency.

Assay [1] concerns the target T1, DDR1 (Homo sapiens, UniProt Q08345).
T1 construct: purchased Invitrogen
As to the kind of experiment: Measurement of DDR1 inhibitory activity (LanthaScreen system, in vitro test). To be noted: GST-DDR1, Kinase tracer 178. The assay is classed as binding. As for the experimental part: Biological Experiment Example 1: Measurement of an DDR1 Inhibitory Activity (In Vitro Test)
An DDR1 enzyme inhibitory activity was measured by using LanthaScreen (registered trademark) system (Invitrogen) based on the attached instruction. The reagents used are shown below.
Assay buffer: 5× Kinase buffer A (Invitrogen) was diluted 5-fold with ddH2O.
1× Kinase Buffer A: 50 mmol/L HEPES pH 7.5, 10 mmol/L MgCl2, 1 mmol/L EGTA, 0.01% Brij-35.
2×DDR1 Solution: a solution containing […] GST-DDR1 (Invitrogen) was prepared by using Assay buffer.
2× Tracer/antibody solution: a solution containing 20 nmol/L Kinase tracer 178 (Invitorgen) and […] Eu-Anti-GST Antibody (Invitorogen) was prepared by using Assay buffer. Test compound solution: a solution containing a test compound of 2-fold concentration with respect to the final concentration was prepared by 50-fold diluting a DMSO solution of test compound of each concentration with the Assay buffer.
• 1 Add 5 μL 2×DDR1 Solution to proxiplate (PerkinElmer) • 2 Add 5 μL test compound solution to proxiplate • 3 Incubate for 15 min at RT • 4 Add 5 μL 2× Tracer/Antibody solution to all well Incubate 1 h at RT • 6 Read LANCE Eu on Envision (PerkinElmer) (Ex: 320 nm/Em 665 nm & 615 nm)
In the low control group, 5 μL Assay buffer was added instead of 5 μL 2×DDR1 Solution and the final 1% DMSO solution was added instead of test compound solution.
In the high control group, the final 1% DMSO solution was added instead of test compound solution.
(§1) The inhibition rate (%) in the test compound group was calculated based on the following mathematical formula.
% inhibition=100−100*(assay value of test compound−A)/(B−A) [Math. 1]
A: average value of low control group B: average value of high control group
Values of 50% inhibition rate (IC50 values) of the test compound were calculated from the inhibition curve based on the inhibition rate of the test compounds in each concentration.
(In general: Time-resolved FRET reads energy transfer from a long-lived donor to a nearby acceptor.)

The target in assay [2] is T2, DDR1 phosphorylation in T-47D (ATCC, HTB-133) cells (Homo sapiens, UniProt Q08345).
T2 construct: host or cells: T-47D
T2 sequence (Q08345 19-913): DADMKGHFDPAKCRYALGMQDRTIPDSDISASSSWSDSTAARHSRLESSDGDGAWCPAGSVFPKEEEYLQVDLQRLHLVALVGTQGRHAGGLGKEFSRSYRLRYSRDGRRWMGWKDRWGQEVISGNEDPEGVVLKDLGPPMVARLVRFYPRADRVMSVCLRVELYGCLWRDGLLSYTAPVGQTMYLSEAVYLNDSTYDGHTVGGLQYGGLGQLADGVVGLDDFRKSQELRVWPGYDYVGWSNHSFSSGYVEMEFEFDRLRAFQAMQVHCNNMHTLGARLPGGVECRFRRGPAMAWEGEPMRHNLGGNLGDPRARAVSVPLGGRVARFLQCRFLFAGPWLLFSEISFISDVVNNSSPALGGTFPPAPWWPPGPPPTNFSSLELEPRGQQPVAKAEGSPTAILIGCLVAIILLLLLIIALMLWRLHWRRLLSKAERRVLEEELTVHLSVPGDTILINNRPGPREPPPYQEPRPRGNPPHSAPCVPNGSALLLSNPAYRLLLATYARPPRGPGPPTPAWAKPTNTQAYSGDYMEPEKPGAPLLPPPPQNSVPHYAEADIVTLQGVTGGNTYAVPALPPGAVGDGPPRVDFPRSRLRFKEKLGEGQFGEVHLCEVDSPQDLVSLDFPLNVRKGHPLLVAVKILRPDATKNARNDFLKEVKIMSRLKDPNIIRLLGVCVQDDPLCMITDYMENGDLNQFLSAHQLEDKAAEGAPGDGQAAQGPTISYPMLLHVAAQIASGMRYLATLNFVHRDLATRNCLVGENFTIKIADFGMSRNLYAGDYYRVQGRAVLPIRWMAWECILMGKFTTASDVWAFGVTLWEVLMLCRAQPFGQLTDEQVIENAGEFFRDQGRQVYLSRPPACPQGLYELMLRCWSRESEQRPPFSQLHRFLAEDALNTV
In words: Measurement of DDR1 phosphorylation suppression rate by using T-47D cells (p-DDR1 ELISA). In kind it is cell-based. To be noted: collagen Type I 10 μg/ml, p-DDR1 (panTyr) ELISA. As for the experimental part:
Biological Example 2: Measurement of DDR1 Phosphorylation Suppression Rate by Using T-47D (ATCC, HTB-133) cells
T-47D cells should be in culture for at least 7 days before using in the assay.
Cell culture medium: RPMI 1640 (HyClone) containing 10% Heat-FBS (HyClone) was prepared.
Assay medium: RPMI 1640 containing 0.1% BSA (solarbio) was prepared.
Collagen Type I (rat tail) solution: Assay medium containing 200 μg/mL Collagen I, rat tail (Gibco) was prepared.
Cell lysis buffer: a solution containing IX cell lysis buffer (CST) and 1× protease and phosphatase inhibitor cocktail (Thermofisher) was prepared by using ddH2O.
• 1. Collect cells into tubes and centrifuge at 1200 rpm for 5 min, at room temperature. Re-suspend the cells in cell culture medium pre-warmed to room temperature. • 2. Count cells and suspend at a density of 2×10^5/ml of cell culture medium. Plate the cells at 100 μL per well (Corning 3599 96-well plate, 2×10^4 cells per well final), mixing the cells well between each draw of the pipettor. • 3. Put lid on cell plate and place into the incubator at 37° C., 5% CO2 • 4. Culture cell overnight
• 1. Remove the plate from the incubator • 2. Cell medium is replaced with the 90 μL Assay medium.
• 1. Compound plates are pre-titrated using DMSO (10-fold dilution for 6 points) • 2. Dilute test compound using assay medium; Transfer 1 μL compound to other 96 well plate and then add 49 μL assay medium to each well (50 fold dilution). • 3. Add 5 μL the diluted test compound solution to the appropriate wells by pipettor. Compound final concentration is start from […] and DMSO final concentration is 0.1 • 4. Tap the plates gently to mix in compound. Reseal the plate with a lid and place in the incubator again, for 24 h.
• 1. Diluted collagen Type I in assay medium to the 200 μg/ml concentration • 2. Using the pipettor adds 5 μL of 200 μg/mL collagen Type I solution to the cell plate (compound well and High control well, collagen final conc. is 10 μg/ml). Add assay medium buffer to the control wells (low control well) • 3. Reseal the plate with a lid and place in the incubator. Incubate 24 h for collagen type I
• 1. After incubation, add 100 µL per well Cell lysis buffer. • 2. Incubate 30 min on ice, then freezing to −80° C. to get the fully cell lysates. • 3. Transfer cell lysates to new plate • 4. Centrifuge for 30 min (×4000 rpm) at 4° C. Then transfer the supernatant to a new plate.
p-DDR1 (panTyr) ELISA kit (CST) was used in the study. The measurement was carried out according to the attached instruction.
as §1
% inhibition=100−100*(assay value of test compound−A)/(B−A) [Math. 2]
A: average value of low control group B: average value of high control group Values of 50% inhibition rate (IC50 values) of the test compound were calculated from the inhibition curve based on the inhibition rate of the test compounds in each concentration.

SMILES strings stand for the structures. Where a name gives a salt, the structure may show the parent alone.

T1 sequence (Q08345 19-913): as above

For the molecule `O=C1CN(c2cncc(C(F)(F)F)c2)C(=O)N1[C@H]1CC[C@H](Oc2ncnc3[nH]ccc23)CC1` (stereo in doubt) [Example 3(17), 3-[trans-4-(7H-pyrrolo[2,3-d]pyrimidin-4-yloxy)cyclohexyl]-1-[5-(trifluoromethyl)-3-pyridinyl]-2,4-imidazolidinedione], the values for the 50% inhibitory concentration (IC50) in assay [1] and in assay [2] were 5 nM and 9 nM, respectively.
On the same counts, the results for `CS(=O)(=O)c1cc(N2CC(=O)N(c3ccc(Oc4cnc5[nH]ncc5c4)cc3)C2=O)cc(C(F)(F)F)c1` [Example 1(28), 1-[3-(methylsulfonyl)-5-(trifluoromethyl)phenyl]-3-[4-(1H-pyrazolo[3,4-b]pyridin-5-yloxy)phenyl]-2,4-imidazolidinedione] are 2 nM and 2 nM.
Regarding `Nc1ncc(Oc2ccc(N3C(=O)CN(c4cncc(C(F)(F)F)c4)C3=O)cc2)cn1` [Example 1, 3-{4-[(2-amino-5-primidinyl)oxy]phenyl}-1-[5-(trifluoromethyl)-3-pyridinyl]-2,4-imidazolidinedione], the IC50 turned out to be 3 nM in assay [1] and 2 nM in assay [2].
On the same counts, the results for `COc1cc2nccc(Oc3ccc(N4C(=O)CN(c5cncc(C(F)(F)F)c5)C4=O)cc3C3CN(C(=O)OC(C)(C)C)C3)c2cc1OC` [Example 2(2), 2-methyl-2-propanyl 3-(2-[(6,7-dimethoxy-4-quinolinyl)oxy]-5-{2,5-dioxo-3-[5-(trifluoromethyl)-3-pyridinyl]-1-imidazolidinyl}phenyl)-1-azetidinecarboxylate] are 200 nM and 50 nM.
As to `CC(C)c1cc(N2C(=O)CN(c3cc(C(F)(F)F)cn(C)c3=O)C2=O)ccc1Oc1ccnc2cc(OCCCS(C)(=O)=O)ccc12` [Example 2(6), 3-[3-isopropyl-4-({7-[3-(methylsulfonyl)propoxy]-4-quinolinyl}oxy)phenyl]-1-[1-methyl-2-oxo-5-(trifluoromethyl)-1,2-dihydro-3-pyridinyl]-2,4-imidazolidinedione], the concentration for half-maximal inhibition (IC50) in assay [1] was determined as 10 nM; in assay [2] it was 6 nM.
`COc1ccc2c(O[C@H]3CC[C@H](N4C(=O)CN(c5cncc(C(F)(F)F)c5)C4=O)CC3)ncnc2c1` [Example 2(19), 3-{trans-4-[(7-methoxy-4-quinazolinyl)oxy]cyclohexyl}-1-[5-(trifluoromethyl)-3-pyridinyl]-2,4-imidazolidinedione]: the concentration for half-maximal inhibition (IC50) in assay [1] came to 3 nM; in assay [2] it was 1 nM.
The molecule `Nc1nccc(Nc2ccc(N3C(=O)CN(c4cccc(OC(F)(F)F)c4)C3=O)cc2Br)c1N` [Example 2(163), 3-{3-bromo-4-[(2,3-diamino-4-pyridinyl)amino]phenyl}-1-[3-(trifluoromethoxy)phenyl]-2,4-imidazolidinedione] displayed an IC50 in assay [2] of 6 nM.
In assay [1], `CCc1cc(N2C(=O)N(c3cncc(C(F)(F)F)c3)CC2O)ccc1Oc1ccnc2[nH]c(=O)cnc12` (stereo not drawn) [Example 5(46), 8-(2-ethyl-4-{5-hydroxy-2-oxo-3-[5-(trifluoromethyl)-3-pyridinyl]-1-imidazolidinyl}phenoxy)pyrido[2,3-b]pyrazin-3(4H)-one] showed an IC50 of 2 nM.
The same measure, in the same setting: the result for `C=Cc1cc(N2C(=O)CN(c3cncc(C(F)(F)F)c3)C2=O)ccc1N1CCCc2cnccc21` [Example 8(1), 3-[4-(3,4-dihydro-1,6-naphthyridin-1(2H)-yl)-3-vinylphenyl]-1-[5-(trifluoromethyl)-3-pyridinyl]-2,4-imidazolidinedione] reads 80 nM.
In assay [2], `O=C1CN(c2cncc(C(F)(F)F)c2)C(=O)N1c1ccc(N2CCCc3cnccc32)c(Br)c1` [Example 8, 3-[3-bromo-4-(3,4-dihydro-1,6-naphthyridin-1(2H)-yl)phenyl]-1-[5-(trifluoromethyl)-3-pyridinyl]-2,4-imidazolidinedione] registered an IC50 of 70 nM.
On the same count and under the same terms, the result for `CC(c1ccnc2[nH]ccc12)N1CCC(N2C(=O)CN(c3cncc(C(F)(F)F)c3)C2=O)CC1` (stereo not drawn) [Example 10(1), 3-{1-[1-(1H-pyrrolo[2,3-b]pyridin-4-yl)ethyl]-4-piperidinyl}-1-[5-(trifluoromethyl)-3-pyridinyl]-2,4-imidazolidinedione] reads 10 nM.
In assay [1], `COc1ccc2c(CN3CCC(N4C(=O)CN(c5cncc(C(F)(F)F)c5)C4=O)CC3)ccnc2c1` [Example 10, 3-{1-[(7-methoxy-4-quinolinyl)methyl]-4-piperidinyl}-1-[5-(trifluoromethyl)-3-pyridinyl]-2,4-imidazolidinedione] gave an IC50 of 60 nM.
`O=C1CN(c2cncc(C(F)(F)F)c2)C(=O)N1[C@H]1CC[C@H](Oc2cnc3[nH]nc(OCCO)c3c2)CC1` [Example 36(7), 3-(trans-4-{[3-(2-hydroxyethoxy)-1H-pyrazolo[3,4-b]pyridin-5-yl]oxy}cyclohexyl)-1-[5-(trifluoromethyl)-3-pyridinyl]-2,4-imidazolidinedione]: inhibition in assay [2] was half-maximal at 0.1 nM (IC50).
In assay [2], `CC(C)(O)c1cc2c(OC34CCC(N5C(=O)CN(c6cncc(C(F)(F)F)c6)C5=O)(CC3)C4)ncnc2[nH]1` [Example 39, 3-(4-{[6-(2-hydroxy-2-propanyl)-7H-pyrrolo[2,3-d]pyrimidin-4-yl]oxy}bicyclo[2.2.1]hept-1-yl)-1-[5-(trifluoromethyl)-3-pyridinyl]-2,4-imidazolidinedione trifluoroacetate (1:1)] returned an IC50 of 10 nM.
In assay [2], `O=C1CN(c2cncc(C(F)(F)F)c2)C(=O)N1C12CCC(Oc3ncnc4[nH]cc(Cl)c34)(CC1)C2` [Example 42(2), 3-{4-[(5-chloro-7H-pyrrolo[2,3-d]pyrimidin-4-yl)oxy]bicyclo[2.2.1]hept-1-yl}-1-[5-(trifluoromethyl)-3-pyridinyl]-2,4-imidazolidinedione] had an IC50 of 20 nM.
Same read-out and setting: next, `N#Cc1cncc(N2CC(=O)N(C34CCC(Oc5ncnc6[nH]ccc56)(CC3)C4)C2=O)c1` [Example 42(7), 5-{2,4-dioxo-3-[4-(7H-pyrrolo[2,3-d]pyrimidin-4-yloxy)bicyclo[2.2.1]hept-1-yl]-1-imidazolidinyl}nicotinonitrile]: 200 nM.
Same read-out and setting: the result for `N#Cc1cccc(N2CC(=O)N(C34CCC(Oc5ncnc6[nH]ccc56)(CC3)C4)C2=O)c1` [Example 42(9), 3-{2,4-dioxo-3-[4-(7H-pyrrolo[2,3-d]pyrimidin-4-yloxy)bicyclo[2.2.1]hept-1-yl]-1-imidazolidinyl}benzonitrile] reads 20 nM; that for `O=C1CN(c2cncc(C(F)(F)F)c2)C(=O)N1C12CCC(Oc3ccnc4[nH]ncc34)(CC1)C2` [Example 43, 3-[4-(1H-pyrazolo[3,4-b]pyridin-4-yloxy)bicyclo[2.2.1]hept-1-yl]-1-[5-(trifluoromethyl)-3-pyridinyl]-2,4-imidazolidinedione], 6 nM.
